Laboratory results reported in US20250313569A1, “Pharmaceutical Compounds And Compositions As Modulators Of MAS-Related G-Protein Receptor X2” (Enanta Pharmaceuticals, Inc., priority 2024, published 2025).

What follows are compounds tested against T1, MRGPRX2 LAD2 (Homo sapiens, UniProt Q96LB1) (assay: LAD2 β-hexosaminidase release assay (degranulation), Cortistatin-14 at EC75). Conditions: LAD2 cells; 1 hour compound incubation, Cortistatin-14 at EC75 for 30 minutes; percent degranulation (β-hexosaminidase).
T1 construct: host or cells: LAD2 human mast cells
T1 sequence (Q96LB1 1-330): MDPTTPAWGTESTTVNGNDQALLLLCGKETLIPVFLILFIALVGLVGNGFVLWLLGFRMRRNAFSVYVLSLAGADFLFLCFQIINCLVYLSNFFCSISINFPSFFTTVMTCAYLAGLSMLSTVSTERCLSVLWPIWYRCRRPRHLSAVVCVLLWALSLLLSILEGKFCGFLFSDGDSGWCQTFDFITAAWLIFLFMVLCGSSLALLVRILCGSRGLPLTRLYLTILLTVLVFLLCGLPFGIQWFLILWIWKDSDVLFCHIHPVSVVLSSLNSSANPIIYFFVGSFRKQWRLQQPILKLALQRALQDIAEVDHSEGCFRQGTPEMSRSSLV
Format: cell-based
Experimental: LAD2 cells obtained from the NIH were cultured in StemPro34 (Gibco) serum-free media supplemented with GlutaMax, penicillin and streptomycin, and 100 ng/mL SCF (Invitrogen). Cells were maintained in a 37° C., 5% CO2 humidified incubator at a concentration of 2-5E5 cells/mL, with hemidepletion once a week.
One day prior to the assay, cells were starved of SCF at a concentration of 2.3E5 cells/mL. On the day of the assay cells were washed twice in Tyrode's Buffer containing 0.04% BSA (assay buffer) and plated in a 96 well-v-bottom assay plate at 20,000 cells per well in 80 μL of assay buffer. Compounds were solubilized at 10 mM DMSO and added as a 10-fold overconcentrated 8-point curve in assay buffer in a volume of 10 μL using the JANUS liquid handler. Assay plates were incubated for 1 hour at 37° C. Cortistatin-14 was diluted in assay buffer to […] its predetermined EC75 and added to the assay plates in a volume of 10 μL. Assay plates were incubated at 37° C. for 30 minutes. After incubation, cells were pelleted and 50 μL of supernatant from each well was transferred to a 96 well flat bottom plate containing 100 μL of substrate solution (3.5 mg/mL p-Nitrophenyl-N-acetyl-β-D-glucosaminide (Sigma Aldrich) in 40 mM Citrate Buffer (Thermo Fisher)). The remaining cell pellets were lysed with 150 μL of 0.1% Triton-X-100 and mixed thoroughly. 50 μL of lysate was transferred to a 96-well flat bottom plate containing 100 μL of substrate solution. Plates with supernatants and lysates were incubated at 37° C. for 90 minutes prior to addition of 50 μL of 400 mM Glycine buffer (pH 10.7). The plates were read on a Perkin Elmer Envision plate reader at an Abs of 405 nanometers. Percent degranulation was calculated and Xlfit was used to calculate an EC50 value for each compound using a 4-parameter logistic curve fitting model. EC50 ranges are reported as follows: A<100 nM; B 0.1-1 μM; C>1 μM.

Structure (SMILES) | EC50
CS(=O)(=O)Nc1cccc(C(=O)N[C@H]2C[C@@H](Nc3cc(C(F)(F)F)nc4ccc(Cl)cc34)CN(C(=O)C(F)F)C2)c1 [Example 72] | < 0.1 µM
O=C(N[C@H]1C[C@@H](Nc2cc(C(F)(F)F)nc3ccc(Cl)cc23)CN(C(=O)[C@H]2CC2(F)F)C1)c1cn(CC(F)(F)F)nc1C1CC1 [Example 74] | < 0.1 µM
O=C(N[C@H]1C[C@@H](Nc2cc(C(F)(F)F)nc3ccc(Cl)cc23)CN(C(=O)[C@@H]2CC2(F)F)C1)c1cn(CC(F)(F)F)nc1C1CC1 [Example 75] | < 0.1 µM
CC(C)(O)Cn1cc(C(=O)N[C@H]2C[C@@H](Nc3cc(C(F)(F)F)nc4ccc(Cl)cc34)CN(C3CC(F)(F)C3)C2)c(Cl)n1 [Example 76] | 0.1 to 1 µM
CC(C)(O)Cn1cc(C(=O)N[C@H]2C[C@@H](Nc3cc(C(F)(F)F)nc4ccc(Cl)cc34)CN(C(=O)[C@H]3CC3(F)F)C2)c(Cl)n1 [Example 78] | < 0.1 µM
COCC(F)(F)C(=O)N1C[C@@H](NC(=O)c2cn(CC(C)(C)O)nc2Cl)C[C@@H](Nc2cc(C(F)(F)F)nc3ccc(Cl)cc23)C1 [Example 79] | < 0.1 µM
CC(C)(O)Cn1cc(C(=O)N[C@H]2C[C@@H](Nc3cc(C(F)(F)F)nc4ccc(Cl)cc34)CN(C(=O)COC(F)(F)F)C2)c(Cl)n1 [Example 80] | < 0.1 µM
CC(C)(O)Cn1cc(C(=O)N[C@H]2C[C@@H](Nc3cc(C(F)(F)F)nc4ccc(Cl)cc34)CN(C(=O)C3(F)CC3)C2)c(Cl)n1 [Example 81] | < 0.1 µM
CC(C)(O)Cn1cc(C(=O)N[C@H]2C[C@@H](Nc3cc(C(F)(F)F)nc4ccc(Cl)cc34)CN(C(=O)C3(C(F)(F)F)CC3)C2)c(Cl)n1 [Example 82] | < 0.1 µM
CC(C)(O)Cn1cc(C(=O)N[C@H]2C[C@@H](Nc3c(F)c(C(F)(F)F)nc4ccc(Cl)cc34)CN(C(=O)C(C)(C)F)C2)c(Cl)n1 [Example 83] | < 0.1 µM
CC(C)(O)Cn1cc(C(=O)N[C@H]2C[C@@H](Nc3cc(C(F)(F)F)nc4ccc(Cl)cc34)CN(C(=O)OCC(F)(F)F)C2)c(Cl)n1 [Example 84] | < 0.1 µM
CC(C)(O)Cn1cc(C(=O)N[C@H]2C[C@@H](Nc3cc(C(F)(F)F)nc4ccc(Cl)cc34)CN(C(=O)c3ccccc3F)C2)c(Cl)n1 [Example 85] | < 0.1 µM
CC(C)(O)Cn1cc(C(=O)N[C@H]2C[C@@H](Nc3cc(C(F)(F)F)nc4ccc(Cl)cc34)CN(C(=O)[C@H](NC(=O)C(F)(F)F)c3ccccc3)C2)c(Cl)n1 [Example 86] | < 0.1 µM
COCC(F)(F)C(=O)N1C[C@@H](NC(=O)c2cn(CC(F)(F)F)nc2C2CC2)C[C@@H](Nc2cc(C(F)(F)F)nc3ccc(Cl)cc23)C1 [Example 87] | < 0.1 µM
CC(C)(O)Cn1cc(C(=O)N[C@H]2C[C@@H](Nc3cc(C(F)(F)F)nc4ccc(Cl)cc34)CN(C(=O)C(F)(F)c3ccc(C#N)cc3)C2)c(Cl)n1 [Example 88] | < 0.1 µM
O=C(N[C@H]1C[C@@H](Nc2cc(C(F)(F)F)nc3ccc(Cl)cc23)CN(C(=O)C(F)(F)F)C1)c1cn(CC(F)(F)F)nc1C1CC1 [Example 89] | < 0.1 µM
O=C(N[C@H]1C[C@@H](Nc2cc(C(F)(F)F)nc3ccc(Cl)cc23)CN(C(=O)C(F)F)C1)c1cn(CC(F)(F)F)nc1C1CC1 [Example 90] | < 0.1 µM
O=C(N[C@H]1C[C@@H](Nc2cc(C(F)(F)F)nc3ccc(Cl)cc23)CN(C2COC2)C1)c1cn(CC(F)(F)F)nc1C1CC1 [Example 91] | 0.1 to 1 µM
O=C(N[C@H]1C[C@@H](Nc2cc(C(F)(F)F)nc3ccc(Cl)cc23)CN(c2ccccn2)C1)c1cn(CC(F)(F)F)nc1C1CC1 [Example 92] | < 0.1 µM
Cn1nnc(N2C[C@@H](NC(=O)c3cn(CC(F)(F)F)nc3C3CC3)C[C@@H](Nc3cc(C(F)(F)F)nc4ccc(Cl)cc34)C2)n1 [Example 93] | < 0.1 µM
CC(=O)N1C[C@@H](NC(=O)c2c[nH]c3ncccc23)C[C@@H](Nc2cc(C(F)(F)F)nc3ccc(Cl)cc23)C1 [Example 94] | < 0.1 µM

Structure (SMILES) | EC50
CC(=O)N1C[C@@H](NC(=O)c2cn(CC(C)(C)O)nc2C(F)(F)F)C[C@@H](Nc2cc(C(F)(F)F)nc3ccc(Cl)cc23)C1 [Example 95] | < 0.1 µM
CC(=O)N1C[C@@H](NC(=O)c2cn(CC(F)(F)F)nc2C(F)(F)F)C[C@@H](Nc2cc(C(F)(F)F)nc3ccc(Cl)cc23)C1 [Example 96] | < 0.1 µM
CC(=O)N1C[C@@H](NC(=O)c2c[nH]c3cccnc23)C[C@@H](Nc2cc(C(F)(F)F)nc3ccc(Cl)cc23)C1 [Example 97] | < 0.1 µM
CC(=O)N1C[C@@H](NC(=O)c2cn(CC(C)(C)O)c3ncccc23)C[C@@H](Nc2cc(C(F)(F)F)nc3ccc(Cl)cc23)C1 [Example 98] | < 0.1 µM
CC(=O)N1C[C@@H](NC(=O)c2cn(CC(F)F)nc2C(F)(F)F)C[C@@H](Nc2cc(C(F)(F)F)nc3ccc(Cl)cc23)C1 [Example 99] | < 0.1 µM
CC(=O)N1C[C@@H](NC(=O)c2cn(CC(F)(F)F)nc2C2CCC2)C[C@@H](Nc2cc(C(F)(F)F)nc3ccc(Cl)cc23)C1 [Example 100] | < 0.1 µM
CC(=O)N1C[C@@H](NC(=O)c2cn(CS(C)(=O)=O)nc2Cl)C[C@@H](Nc2cc(C(F)(F)F)nc3ccc(Cl)cc23)C1 [Example 101] | < 0.1 µM
COCc1nn(CC(F)(F)F)cc1C(=O)N[C@H]1C[C@@H](Nc2cc(C(F)(F)F)nc3ccc(Cl)cc23)CN(C(C)=O)C1 [Example 102] | < 0.1 µM
CC(=O)N1C[C@@H](NC(=O)c2cn(CC(C)(C)O)nc2C(F)F)C[C@@H](Nc2cc(C(F)(F)F)nc3ccc(Cl)cc23)C1 [Example 103] | < 0.1 µM
CC(=O)N1C[C@@H](NC(=O)c2cn(CC(C)(C)O)nc2C)C[C@@H](Nc2cc(C(F)(F)F)nc3ccc(Cl)cc23)C1 [Example 104] | < 0.1 µM
CC(=O)N1C[C@@H](NC(=O)c2cn(C3CCS(=O)(=O)CC3)nc2C(F)(F)F)C[C@@H](Nc2cc(C(F)(F)F)nc3ccc(Cl)cc23)C1 [Example 106] | < 0.1 µM
CC(=O)N1C[C@@H](NC(=O)c2cn(C3CC(F)(F)C3)nc2C(F)F)C[C@@H](Nc2cc(C(F)(F)F)nc3ccc(Cl)cc23)C1 [Example 108] | < 0.1 µM
CC(=O)N1C[C@@H](NC(=O)c2cn(CC(F)(F)F)nc2C2CC2)C[C@@H](Nc2cc(C(F)(F)F)nc3ccc(Cl)cc23)C1 [Example 109] | < 0.1 µM
CC(=O)N1C[C@@H](NC(=O)c2cn(CC(F)F)nc2C2CC2)C[C@@H](Nc2cc(C(F)(F)F)nc3ccc(Cl)cc23)C1 [Example 110] | < 0.1 µM
CC(=O)N1C[C@@H](NC(=O)c2ccc3[nH]ccc3c2)C[C@@H](Nc2cc(C(F)(F)F)nc3ccc(Cl)cc23)C1 [Example 111] | < 0.1 µM
CC(=O)N1C[C@@H](NC(=O)c2ccc3cc[nH]c3c2)C[C@@H](Nc2cc(C(F)(F)F)nc3ccc(Cl)cc23)C1 [Example 112] | < 0.1 µM
CC(=O)N1C[C@@H](NC(=O)c2cn(CC(F)(F)F)cc2C(F)(F)F)C[C@@H](Nc2cc(C(F)(F)F)nc3ccc(Cl)cc23)C1 [Example 113] | < 0.1 µM
O=C(N[C@H]1C[C@@H](Nc2cc(C(F)(F)F)nc3ccc(Cl)cc23)CN(C(=O)C(F)F)C1)c1cn(C[C@@H](O)C(F)(F)F)nc1Cl [Example 116] | < 0.1 µM
Cc1nn(CC(C)(C)O)cc1C(=O)N[C@H]1C[C@@H](Nc2cc(C(F)(F)F)nc3ccc(Cl)cc23)CN(C(=O)C(F)F)C1 [Example 117] | < 0.1 µM
CC(C)(O)Cn1cc(C(=O)N[C@H]2C[C@@H](Nc3cc(C(F)(F)F)nc4ccc(Cl)cc34)CN(C(=O)C(F)F)C2)c(Cl)n1 [Example 118] | < 0.1 µM
